Columns and labels:
Test in all cases: relative viability vs DMSO control (72 h) (fraction); higher = more viable cells
SK-LMS-1 = system: SK-LMS-1
Method in brief: (§1)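 Sarcoma cell lines went into 384-well plates at densities chosen to reach 80–90% confluence. After 24 h, each well received 2.5 µl of serially diluted compound, with source plates running from 10 mM to 0.0002 mM, and the plates were kept 72 h at 37 °C, 5% CO2, alongside 0.1% DMSO vehicle and a 5 µM positive control. Relative viability was derived from ATPLite readings as percent growth and averaged over up to triplicate wells. The data were then rescaled so that 1 stands for full and 0 for none.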

VA-ES-BJ = system: VA-ES-BJ
Method in brief: as §1

KHOS-240S = system: KHOS-240S
Method in brief: as §1

A204 = system: A204
Method in brief: as §1

MES-SA = system: MES-SA
Method in brief: as §1

SW1353 = system: SW1353
Method in brief: as §1

SK-ES-1 = system: SK-ES-1
Method in brief: as §1

RD = system: RD
Method in brief: as §1

SW872 = system: SW872
Method in brief: as §1

G401 = system: G401
Method in brief: as §1

HS729 = system: HS729
Method in brief: as §1

SW982 = system: SW982
Method in brief: as §1

C[C@@H](Oc1cc(-c2cnn(C3CCNCC3)c2)cnc1N)c1c(Cl)ccc(F)c1Cl [Crizotinib]
Settings	relative viability
A204, 0.00017 µM	1.07
A204, 0.00051 µM	1.05
A204, 0.00152 µM	1.08
A204, 0.00457 µM	1.08
A204, 0.01372 µM	1.1
A204, 0.04115 µM	1.09
A204, 0.1235 µM	1.08
A204, 0.3704 µM	0.963
A204, 1.111 µM	0.823
A204, 3.333 µM	0.577
A204, 10 µM	0.0123
G401, 0.00017 µM	1.01
G401, 0.00051 µM	0.995
G401, 0.00152 µM	1.01
G401, 0.00457 µM	1.01
G401, 0.01372 µM	1.01
G401, 0.04115 µM	1.01
G401, 0.1235 µM	0.9894
G401, 0.3704 µM	0.915
G401, 1.111 µM	0.745
G401, 3.333 µM	0.417
G401, 10 µM	0.000367
HS729, 0.00017 µM	0.998
HS729, 0.00051 µM	1.01
HS729, 0.00152 µM	0.9714
HS729, 0.00457 µM	0.98
HS729, 0.01372 µM	0.9284
HS729, 0.04115 µM	0.947
HS729, 0.1235 µM	0.922
HS729, 0.3704 µM	0.872
HS729, 1.111 µM	0.744
HS729, 3.333 µM	0.58
HS729, 10 µM	0.0222
KHOS-240S, 0.00017 µM	1.04
KHOS-240S, 0.00051 µM	1.05
KHOS-240S, 0.00152 µM	1.06
KHOS-240S, 0.00457 µM	1.05
KHOS-240S, 0.01372 µM	1.05
KHOS-240S, 0.04115 µM	1.05
KHOS-240S, 0.1235 µM	1.04
KHOS-240S, 0.3704 µM	0.992
KHOS-240S, 1.111 µM	0.771
KHOS-240S, 3.333 µM	0.566
KHOS-240S, 10 µM	0.0657
MES-SA, 0.00017 µM	0.943
MES-SA, 0.00051 µM	0.935
MES-SA, 0.00152 µM	0.943
MES-SA, 0.00457 µM	0.944
MES-SA, 0.01372 µM	0.946
MES-SA, 0.04115 µM	0.969
MES-SA, 0.1235 µM	0.938
MES-SA, 0.3704 µM	0.536
MES-SA, 1.111 µM	0.434
MES-SA, 3.333 µM	0.27
MES-SA, 10 µM	-0.000833
RD, 0.00017 µM	1.08
RD, 0.00051 µM	1.07
RD, 0.00152 µM	1.106
RD, 0.00457 µM	1.09
RD, 0.01372 µM	1.1
RD, 0.04115 µM	1.1
RD, 0.1235 µM	1.09
RD, 0.3704 µM	0.88
RD, 1.111 µM	0.626
RD, 3.333 µM	0.441
RD, 10 µM	0.00437
SK-ES-1, 0.00017 µM	1.03
SK-ES-1, 0.00051 µM	1.01
SK-ES-1, 0.00152 µM	1.05
SK-ES-1, 0.00457 µM	1.052
SK-ES-1, 0.01372 µM	1.06
SK-ES-1, 0.04115 µM	1.03
SK-ES-1, 0.1235 µM	0.979
SK-ES-1, 0.3704 µM	0.673
SK-ES-1, 1.111 µM	0.0655
SK-ES-1, 3.333 µM	0.0452
SK-ES-1, 10 µM	0.00363
SK-LMS-1, 0.00017 µM	1.03
SK-LMS-1, 0.00051 µM	1.02
SK-LMS-1, 0.00152 µM	1.01
SK-LMS-1, 0.00457 µM	1.01
SK-LMS-1, 0.01372 µM	0.996
SK-LMS-1, 0.04115 µM	0.921
SK-LMS-1, 0.1235 µM	0.641
SK-LMS-1, 0.3704 µM	0.571
SK-LMS-1, 1.111 µM	0.525
SK-LMS-1, 3.333 µM	0.335
SK-LMS-1, 10 µM	0.0176
SW872, 0.00017 µM	1.06
SW872, 0.00051 µM	1.07
SW872, 0.00152 µM	1.09
SW872, 0.00457 µM	1.06
SW872, 0.01372 µM	1.08
SW872, 0.04115 µM	1.09
SW872, 0.1235 µM	1.014
SW872, 0.3704 µM	0.921
SW872, 1.111 µM	0.644
SW872, 3.333 µM	0.463
SW872, 10 µM	-0.00847
SW982, 0.00017 µM	1.04
SW982, 0.00051 µM	1.03
SW982, 0.00152 µM	1.03
SW982, 0.00457 µM	1.05
SW982, 0.01372 µM	1.03
SW982, 0.04115 µM	1.03
SW982, 0.1235 µM	0.954
SW982, 0.3704 µM	0.628
SW982, 1.111 µM	0.328
SW982, 3.333 µM	0.168
SW982, 10 µM	0.00317
SW1353, 0.00017 µM	1
SW1353, 0.00051 µM	1
SW1353, 0.00152 µM	1.018
SW1353, 0.00457 µM	0.987
SW1353, 0.01372 µM	1.02
SW1353, 0.04115 µM	0.996
SW1353, 0.1235 µM	1.03
SW1353, 0.3704 µM	1.01
SW1353, 1.111 µM	0.999
SW1353, 3.333 µM	0.679
SW1353, 10 µM	0.00907
VA-ES-BJ, 0.00017 µM	1.06
VA-ES-BJ, 0.00051 µM	1.05
VA-ES-BJ, 0.00152 µM	1.06
VA-ES-BJ, 0.00457 µM	1.06
VA-ES-BJ, 0.01372 µM	1.04
VA-ES-BJ, 0.04115 µM	0.975
VA-ES-BJ, 0.1235 µM	0.899
VA-ES-BJ, 0.3704 µM	0.764
VA-ES-BJ, 1.111 µM	0.641
VA-ES-BJ, 3.333 µM	0.505
VA-ES-BJ, 10 µM	0.00337

COc1cc2ncnc(Nc3ccc(F)c(Cl)c3)c2cc1NC(=O)/C=C/CN1CCCCC1 [Dacomitinib]
Settings	relative viability
A204, 0.00017 µM	1.1
A204, 0.00051 µM	1.09
A204, 0.00152 µM	1.09
A204, 0.00457 µM	1.08
A204, 0.01372 µM	1.04
A204, 0.04115 µM	1.07
A204, 0.1235 µM	1.06
A204, 0.3704 µM	0.978
A204, 1.111 µM	0.751
A204, 3.333 µM	0.327
A204, 10 µM	0.0139
G401, 0.00017 µM	1.02
G401, 0.00051 µM	1.01
G401, 0.00152 µM	1.03
G401, 0.00457 µM	1.03
G401, 0.01372 µM	1.01
G401, 0.04115 µM	0.999
G401, 0.1235 µM	1.02
G401, 0.3704 µM	0.997
G401, 1.111 µM	0.849
G401, 3.333 µM	0.548
G401, 10 µM	0.00623
HS729, 0.00017 µM	1.08
HS729, 0.00051 µM	1.04
HS729, 0.00152 µM	1.03
HS729, 0.00457 µM	1.04
HS729, 0.01372 µM	1.01
HS729, 0.04115 µM	0.975
HS729, 0.1235 µM	1
HS729, 0.3704 µM	0.894
HS729, 1.111 µM	0.844
HS729, 3.333 µM	0.737
HS729, 10 µM	0.318
KHOS-240S, 0.00017 µM	1.08
KHOS-240S, 0.00051 µM	1.09
KHOS-240S, 0.00152 µM	1.09
KHOS-240S, 0.00457 µM	1.06
KHOS-240S, 0.01372 µM	1.06
KHOS-240S, 0.04115 µM	1.06
KHOS-240S, 0.1235 µM	1.08
KHOS-240S, 0.3704 µM	1.01
KHOS-240S, 1.111 µM	0.936
KHOS-240S, 3.333 µM	0.579
KHOS-240S, 10 µM	0.0145
MES-SA, 0.00017 µM	0.967
MES-SA, 0.00051 µM	0.942
MES-SA, 0.00152 µM	0.949
MES-SA, 0.00457 µM	0.932
MES-SA, 0.01372 µM	0.926
MES-SA, 0.04115 µM	0.927
MES-SA, 0.1235 µM	0.893
MES-SA, 0.3704 µM	0.879
MES-SA, 1.111 µM	0.731
MES-SA, 3.333 µM	0.342
MES-SA, 10 µM	0.00577
RD, 0.00017 µM	1.103
RD, 0.00051 µM	1.09
RD, 0.00152 µM	1.12
RD, 0.00457 µM	1.141
RD, 0.01372 µM	1.13
RD, 0.04115 µM	1.12
RD, 0.1235 µM	1.12
RD, 0.3704 µM	1.08
RD, 1.111 µM	0.976
RD, 3.333 µM	0.347
RD, 10 µM	0.00617
SK-ES-1, 0.00017 µM	1.04
SK-ES-1, 0.00051 µM	1.1
SK-ES-1, 0.00152 µM	1.04
SK-ES-1, 0.00457 µM	1.07
SK-ES-1, 0.01372 µM	1.07
SK-ES-1, 0.04115 µM	1.04
SK-ES-1, 0.1235 µM	1.02
SK-ES-1, 0.3704 µM	1.01
SK-ES-1, 1.111 µM	0.662
SK-ES-1, 3.333 µM	0.184
SK-ES-1, 10 µM	0.00867
SK-LMS-1, 0.00017 µM	1.11
SK-LMS-1, 0.00051 µM	1.11
SK-LMS-1, 0.00152 µM	1.11
SK-LMS-1, 0.00457 µM	1.13
SK-LMS-1, 0.01372 µM	1.09
SK-LMS-1, 0.04115 µM	1.08
SK-LMS-1, 0.1235 µM	1.04
SK-LMS-1, 0.3704 µM	1.03
SK-LMS-1, 1.111 µM	0.916
SK-LMS-1, 3.333 µM	0.701
SK-LMS-1, 10 µM	0.013
SW872, 0.00017 µM	1.1
SW872, 0.00051 µM	1.12
SW872, 0.00152 µM	1.1
SW872, 0.00457 µM	1.11
SW872, 0.01372 µM	1.11
SW872, 0.04115 µM	1.08
SW872, 0.1235 µM	1.05
SW872, 0.3704 µM	1.03
SW872, 1.111 µM	0.87
SW872, 3.333 µM	0.508
SW872, 10 µM	0.043
SW982, 0.00017 µM	1.05
SW982, 0.00051 µM	1.07
SW982, 0.00152 µM	1.08
SW982, 0.00457 µM	1.09
SW982, 0.01372 µM	1.08
SW982, 0.04115 µM	1.08
SW982, 0.1235 µM	1.04
SW982, 0.3704 µM	0.986
SW982, 1.111 µM	0.606
SW982, 3.333 µM	0.21
SW982, 10 µM	0.0159
SW1353, 0.00017 µM	1.06
SW1353, 0.00051 µM	1.05
SW1353, 0.00152 µM	1.02
SW1353, 0.00457 µM	0.9671
SW1353, 0.01372 µM	0.927
SW1353, 0.04115 µM	0.884
SW1353, 0.1235 µM	0.8331
SW1353, 0.3704 µM	0.764
SW1353, 1.111 µM	0.665
SW1353, 3.333 µM	0.401
SW1353, 10 µM	0.0104
VA-ES-BJ, 0.00017 µM	1.064
VA-ES-BJ, 0.00051 µM	1.08
VA-ES-BJ, 0.00152 µM	1.09
VA-ES-BJ, 0.00457 µM	1.09
VA-ES-BJ, 0.01372 µM	1.03
VA-ES-BJ, 0.04115 µM	0.979
VA-ES-BJ, 0.1235 µM	1.02
VA-ES-BJ, 0.3704 µM	0.994
VA-ES-BJ, 1.111 µM	0.914
VA-ES-BJ, 3.333 µM	0.535
VA-ES-BJ, 10 µM	-0.0076

— the supplement of paper PMC10883282
